Data taken from EP0534511A1, “HIV protease inhibitors useful for the treatment of aids” (MERCK & CO. INC., priority 1991, dated 1993).

Molecular target: T1, HIV protease (Human immunodeficiency virus type 1 group M subtype B, UniProt P04585)
T1 construct: the protease expressed in Eschericia coli; made in house; host or cells: Escherichia coli
Test: Assay for Inhibition of Microbial Expressed Viral Protease
Assay type: biochemical
Conditions: protease expressed in Eschericia coli; peptide substrate Val-Ser-Gln-Asn-(betanapthyl)Ala-Pro-Ile-Val 0.5 mg/mL; 50 mM Na acetate, pH 5.5, 30°C, 1 hour; HPLC; read-out: IC₅₀
Method: Assay for Inhibition of Microbial Expressed Viral Protease
Inhibition studies of the reaction of the protease expressed in Eschericia coli with a peptide substrate [Val-Ser-Gln-Asn-(betanapthyl)Ala-Pro-Ile-Val, 0.5 mg/mL at the time the reaction is initiated] were in 50 mM Na acetate, pH 5.5, at 30°C for 1 hour. Various concentrations of inhibitor in 1.0 ul DMSO were added to 25 ul of the peptide solution in water. The reaction is initiated by the addition of 15 ul of 0.33 nM protease (0.11 ng) in a solution of 0.133 M Na acetate pH 5.5 and 0.26% bovine serum albumin. The reaction was quenched with 160 ul of 5% phosphoric acid. Products of the reaction were separated by HPLC (VYDAC wide pore 5 cm C-18 reverse phase, acetonitrile gradient, 0.1% phosphoric acid). The extent of inhibition of the reaction was determined from the peak heights of the products.

| IC50 [nM] | Compound |
| --- | --- |
| 0.37 | CC(C)[C@H](C[C@H](O)[C@H](CC1CCCCC1)NC(=O)O[C@H]1CCOC1)C(=O)N[C@H]1c2ccccc2C[C@H]1O [A, N-[(2R)-hydroxy-1(S)-indanyl]-5(S)-(3(S)-tetrahydrofuranyloxycarbonylamino)-4(S)-hydroxy-6-cyclohexyl-2(R)-isopropyl hexanamide] |
| 0.04 | O=C(N[C@@H](CC1CCCCC1)[C@@H](O)C[C@@H](Cc1ccccc1)C(=O)N[C@H]1c2ccccc2C[C@H]1O)O[C@H]1CCOC1 [C, N-[(2R)-hydroxy-1(S)-indanyl]-5(S)-(3(S)-tetrahydrofuranyloxycarbonylamino)-4(S)-hydroxy-6-cyclohexyl-2(R)-phenylmethyl hexamamide] |
